Experimental data taken from ChEMBL document CHEMBL1132028, “Glycolipids from sponges. VII. Simplexides, novel immunosuppressive glycolipids from the Caribbean sponge Plakortis simplex” (1999).

What was measured:
T-cell [1] = test: Inhibitory activity against murine immune-system T-cells stimulated with concanavalin-A at 100 ng/ml; format: functional, Mus musculus
T-cell [2] = test: Inhibitory activity against murine immune-system T-cells stimulated with concanavalin-A at 10 ng/ml; format: functional, Mus musculus
Plakortis simplex = test: In vitro immunosuppressors activity against P. simplex; Potent; format: functional, organism-based

Row | SMILES | Proliferation (T-cell [1]) | Proliferation (T-cell [2]) | Activity (Plakortis simplex)
1 | CCCCCCCCCCCCCCCCCC(CCCCCCCCCCCCCCC(C)CC)O[C@@H]1O[C@@H](CO)[C@H](O[C@H]2O[C@@H](CO)[C@@H](O)[C@H](O)[C@@H]2O)[C@H](O)[C@@H]1O (stereo partly specified) | 79% | 43% | –
2 | CCCCCCCCCCCCCCCCC(CCCCCCCCCCCCCCC(C)C)O[C@@H]1O[C@@H](CO)[C@H](O[C@H]2O[C@@H](CO)[C@@H](O)[C@H](O)[C@@H]2O)[C@H](O)[C@@H]1O (stereo partly specified) | 79% | 43% | –
3 | CCCCCCCCCCCCCCCCCCC(CCCCCCCCCCCCCCCCCC)O[C@@H]1O[C@@H](CO)[C@H](O[C@H]2O[C@@H](CO)[C@@H](O)[C@H](O)[C@@H]2O)[C@H](O)[C@@H]1O | 79% | 43% | –
4 | CCCCCCCCCCCCCCCCCCC(CCCCCCCCCCCCCCC(C)C)O[C@@H]1O[C@@H](CO)[C@H](OC2O[C@@H](CO)[C@@H](O)[C@H](O)[C@@H]2O)[C@H](O)[C@@H]1O (stereo partly specified) | 79% | 43% | –
5 | CCCCCCCCCCCCCCCCCCC(CCCCCCCCCCCCCCCC)O[C@@H]1O[C@@H](CO)[C@H](O[C@H]2O[C@@H](CO)[C@@H](O)[C@H](O)[C@@H]2O)[C@H](O)[C@@H]1O (stereo partly specified) | 79% | 43% | –
6 | CCCCCCCCCCCCCCCCC(CCCCCCCCCCCCCCC(C)CC)O[C@@H]1O[C@@H](CO)[C@H](O[C@H]2O[C@@H](CO)[C@@H](O)[C@H](O)[C@@H]2O)[C@H](O)[C@@H]1O (stereo partly specified) | 79% | 43% | –
7 | CCC(C)CCCCCCCCCCCCCCC(CCCCCCCCCCCCCCC(C)CC)O[C@@H]1O[C@@H](CO)[C@H](OC2O[C@@H](CO)[C@@H](O)[C@H](O)[C@@H]2O)[C@H](O)[C@@H]1O (stereo partly specified) | 79% | 43% | –
8 | CCCCCCCCCCCCCCCCC(CCCCCCCCCCCCCCCC)O[C@@H]1O[C@@H](CO)[C@H](O[C@H]2O[C@@H](CO)[C@@H](O)[C@H](O)[C@@H]2O)[C@H](O)[C@@H]1O | 79% | 43% | –
9 | CCCCCCCCCCCCCCCCCCC(CCCCCCCCCCCCCCCCC)O[C@@H]1O[C@@H](CO)[C@H](OC2O[C@@H](CO)[C@@H](O)[C@H](O)[C@@H]2O)[C@H](O)[C@@H]1O (stereo partly specified) | 79% | 43% | –
10 | CCC(C)CCCCCCCCCCCCCCC(CCCCCCCCCCCCCCC(C)C)O[C@@H]1O[C@@H](CO)[C@H](O[C@H]2O[C@@H](CO)[C@@H](O)[C@H](O)[C@@H]2O)[C@H](O)[C@@H]1O (stereo partly specified) | 79% | 43% | –
11 | CCCCCCCCCCCCCCCCCC(CCCCCCCCCCCCCCCCC)O[C@@H]1O[C@@H](CO)[C@H](O[C@H]2O[C@@H](CO)[C@@H](O)[C@H](O)[C@@H]2O)[C@H](O)[C@@H]1O | 79% | 43% | –
12 | CCCCCCCCCCCCCCCCCC(CCCCCCCCCCCCCCCC)O[C@@H]1O[C@@H](CO)[C@H](O[C@H]2O[C@@H](CO)[C@@H](O)[C@H](O)[C@@H]2O)[C@H](O)[C@@H]1O (stereo partly specified) | 79% | 43% | –
13 | CCCCCCCCCCCC1CC1CCCCC/C=C/CC[C@@H](O)[C@H](CO[C@@H]1O[C@@H](CO)[C@H](O)[C@H](O)[C@@H]1OCC=C(C)C)NC(=O)[C@H](O)CC/C=C\CCCCC1CC1CCCCCCCCCC (stereo partly specified) | – | – | Potent
14 | CCCCCCCCCCCCCCCCCCC(CCCCCCCCCCCCCCC(C)CC)O[C@@H]1O[C@@H](CO)[C@H](O[C@H]2O[C@@H](CO)[C@@H](O)[C@H](O)[C@@H]2O)[C@H](O)[C@@H]1O (stereo partly specified) | 79% | 43% | –
15 | CCCCCCCCCCCCCCCCCC(CCCCCCCCCCCCCCC(C)C)O[C@@H]1O[C@@H](CO)[C@H](O[C@H]2O[C@@H](CO)[C@@H](O)[C@H](O)[C@@H]2O)[C@H](O)[C@@H]1O (stereo partly specified) | 79% | 43% | –
16 | CC(C)CCCCCCCCCCCCCCC(CCCCCCCCCCCCCCC(C)C)O[C@@H]1O[C@@H](CO)[C@H](O[C@H]2O[C@@H](CO)[C@@H](O)[C@H](O)[C@@H]2O)[C@H](O)[C@@H]1O | 79% | 43% | –
